According to US20230024096A1, “BIFUNCTIONAL COMPOUNDS FOR THE TREATMENT OF CANCER” (Hoffmann-La Roche Inc., priority 2019, published 2023):

Target: T1, SMARCA2 (Homo sapiens, UniProt P51531)
T1 construct: endogenous in cells; host or cells: HT1080 (CRISPR HiBiT knock-in clone, generated in house)
Assay: SMARCA2 HiBiT degradation assay (cellular)
Assay type: cell-based
Conditions: table head names A549; for DC50: 6 h incubation, HiBiT-tagged SMARCA2, luminescence read-out, read-out: HiBit A549 SMARCA2 IP (nM) 6 h; for Emax: A549, 6 h incubation, Emax = amount of residual protein remaining in the cell following compound treatment

T1 sequence (P51531 whole entry): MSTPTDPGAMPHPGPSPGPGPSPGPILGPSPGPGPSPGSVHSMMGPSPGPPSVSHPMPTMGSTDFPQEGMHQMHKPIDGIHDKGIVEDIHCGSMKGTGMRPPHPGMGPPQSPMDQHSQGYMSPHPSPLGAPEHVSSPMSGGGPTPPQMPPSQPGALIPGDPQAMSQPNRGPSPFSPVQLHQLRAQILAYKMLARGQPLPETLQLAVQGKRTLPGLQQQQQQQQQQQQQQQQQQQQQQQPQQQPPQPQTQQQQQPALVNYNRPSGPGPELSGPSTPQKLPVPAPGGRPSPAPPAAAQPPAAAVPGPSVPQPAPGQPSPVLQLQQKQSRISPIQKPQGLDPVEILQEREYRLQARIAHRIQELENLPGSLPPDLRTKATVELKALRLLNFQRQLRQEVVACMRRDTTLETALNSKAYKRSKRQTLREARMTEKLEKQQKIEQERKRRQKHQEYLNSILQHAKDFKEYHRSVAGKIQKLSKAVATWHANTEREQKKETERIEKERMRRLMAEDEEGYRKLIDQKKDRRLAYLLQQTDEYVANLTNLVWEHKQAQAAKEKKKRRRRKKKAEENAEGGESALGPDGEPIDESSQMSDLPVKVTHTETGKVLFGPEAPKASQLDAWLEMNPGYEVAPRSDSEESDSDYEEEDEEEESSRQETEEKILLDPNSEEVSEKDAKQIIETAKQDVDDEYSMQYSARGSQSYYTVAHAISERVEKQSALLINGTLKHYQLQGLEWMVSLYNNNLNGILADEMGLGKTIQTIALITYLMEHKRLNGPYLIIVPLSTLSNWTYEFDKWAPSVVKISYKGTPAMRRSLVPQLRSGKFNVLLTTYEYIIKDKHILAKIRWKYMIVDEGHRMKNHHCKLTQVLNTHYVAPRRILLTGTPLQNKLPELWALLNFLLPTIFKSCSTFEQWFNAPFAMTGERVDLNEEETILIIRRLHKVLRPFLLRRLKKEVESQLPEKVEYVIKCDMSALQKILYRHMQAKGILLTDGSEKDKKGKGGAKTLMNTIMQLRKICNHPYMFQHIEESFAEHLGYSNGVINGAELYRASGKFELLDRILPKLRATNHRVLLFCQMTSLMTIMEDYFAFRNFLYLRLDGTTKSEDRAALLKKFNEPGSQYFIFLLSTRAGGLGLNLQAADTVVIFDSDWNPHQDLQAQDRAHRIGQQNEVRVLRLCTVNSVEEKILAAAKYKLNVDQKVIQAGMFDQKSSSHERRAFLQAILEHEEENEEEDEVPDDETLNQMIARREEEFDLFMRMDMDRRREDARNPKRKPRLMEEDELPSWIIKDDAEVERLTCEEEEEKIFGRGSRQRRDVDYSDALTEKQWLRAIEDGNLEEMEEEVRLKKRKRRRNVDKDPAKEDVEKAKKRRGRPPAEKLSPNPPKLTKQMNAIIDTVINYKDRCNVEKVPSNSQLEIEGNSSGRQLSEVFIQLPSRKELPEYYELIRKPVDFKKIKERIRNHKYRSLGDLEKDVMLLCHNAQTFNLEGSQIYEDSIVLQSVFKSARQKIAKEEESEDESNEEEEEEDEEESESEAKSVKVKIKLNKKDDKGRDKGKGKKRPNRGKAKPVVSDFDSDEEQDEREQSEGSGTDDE

DC50 [nM]	Emax [%]	SMILES
18	37	Nc1nnc(-c2ccccc2O)cc1N1CCN(c2cccc(CN3CCN(C(=O)CCC4CCN(c5ccc6c(c5)C(=O)N(C5CCC(=O)NC5=O)C6=O)CC4)CC3)c2)C2(CC2)C1 (stereo not shown) [Example 128, 5-(4-(3-(4-(3-(7-(3-amino-6-(2-hydroxyphenyl)pyridazin-4-yl)-4,7-diazaspiro[2.5]octan-4-yl)benzyl)piperazin-1-yl)-3-oxopropyl)piperidin-1-yl)-2-(2,6-dioxopiperidin-3-yl)isoindoline-1,3-dione]
37	38	Nc1nnc(-c2ccccc2O)cc1N1CCN(c2cccc(CN3CCN(C(=O)COc4ccc5c(c4)C(=O)N(C4CCC(=O)NC4=O)C5=O)CC3)c2)C2(CC2)C1 (stereo not shown) [Example 129, 5-(2-(4-(3-(7-(3-amino-6-(2-hydroxyphenyl)pyridazin-4-yl)-4,7-diazaspiro[2.5]octan-4-yl)benzyl)piperazin-1-yl)-2-oxoethoxy)-2-(2,6-dioxopiperidin-3-yl)isoindoline-1,3-dione]
12	43	Nc1nnc(-c2ccccc2O)cc1N1CCN(c2cccc(CN3CCN(C(=O)CC4CCN(c5ccc6c(c5)C(=O)N(C5CCC(=O)NC5=O)C6=O)CC4)CC3)c2)C2(CC2)C1 (stereo not shown) [Example 130, 5-(4-(2-(4-(3-(7-(3-amino-6-(2-hydroxyphenyl)pyridazin-4-yl)-4,7-diazaspiro[2.5]octan-4-yl)benzyl)piperazin-1-yl)-2-oxoethyl)piperidin-1-yl)-2-(2,6-dioxopiperidin-3-yl)isoindoline-1,3-dione]
495	45	Nc1nnc(-c2ccccc2O)cc1OC1CCCN(c2ccc(N3CCN(CCCCCCCCCc4ccc(CNc5cccc6c5C(=O)N(C5CCC(=O)NC5=O)C6=O)nc4)CC3)cc2)C1 (stereo not shown) [Example 136, 4-[[5-[9-[4-[4-[3-[3-amino-6-(2-hydroxyphenyl)pyridazin-4-yl]oxy-1-piperidyl]phenyl]piperazin-1-yl]nonyl]-2-pyridyl]methylamino]-2-(2,6-dioxo-3-piperidyl)isoindoline-1,3-dione]
802	62	Nc1nnc(-c2ccccc2O)cc1OC1CCCN(c2ccc(N3CCN(CCCCCCCCCc4ccnc(CNc5cccc6c5C(=O)N(C5CCC(=O)NC5=O)C6=O)c4)CC3)cc2)C1 (stereo not shown) [Example 139, 4-[[4-[9-[4-[4-[3-[3-amino-6-(2-hydroxyphenyl)pyridazin-4-yl]oxy-1-piperidyl]phenyl]piperazin-1-yl]nonyl]-2-pyridyl]methylamino]-2-(2,6-dioxo-3-piperidyl)isoindoline-1,3-dione]
928	69	Nc1nnc(-c2ccccc2O)cc1N1CC(Oc2cccc(C(=O)N3CCN(C(=O)CCCCCCNc4cccc5c4C(=O)N(C4CCC(=O)NC4=O)C5=O)CC3)c2)C1 (stereo not shown) [Example 145, 4-[[7-[4-[3-[1-[3-amino-6-(2-hydroxyphenyl)pyridazin-4-yl]azetidin-3-yl]oxybenzoyl]piperazin-1-yl]-7-oxo-heptyl]amino]-2-(2,6-dioxo-3-piperidyl)isoindoline-1,3-dione]
126	41	Nc1nnc(-c2ccccc2O)cc1N1CC(Oc2cccc(C(=O)N3CCN(C(=O)CCCCCCCCCNc4cccc5c4C(=O)N(C4CCC(=O)NC4=O)C5=O)CC3)c2)C1 (stereo not shown) [Example 146, 4-[[10-[4-[3-[1-[3-amino-6-(2-hydroxyphenyl)pyridazin-4-yl]azetidin-3-yl]oxybenzoyl]piperazin-1-yl]-10-oxo-decyl]amino]-2-(2,6-dioxo-3-piperidyl)isoindoline-1,3-dione]
553	65	Nc1nnc(-c2ccccc2O)cc1N1CC(Oc2ccc(C(=O)N3CCN(C(=O)CCCCCCCCCNc4cccc5c4C(=O)N(C4CCC(=O)NC4=O)C5=O)CC3)cc2)C1 (stereo not shown) [Example 150, 4-[[10-[4-[4-[1-[3-amino-6-(2-hydroxyphenyl)pyridazin-4-yl]azetidin-3-yl]oxybenzoyl]piperazin-1-yl]-10-oxo-decyl]amino]-2-(2,6-dioxo-3-piperidyl)isoindoline-1,3-dione]
855	54	Nc1nnc(-c2ccccc2O)cc1N1CCC(NC(=O)CCCN2CCC(c3ccc(OC4CCC(=O)NC4=O)cc3)CC2)(c2ccccc2)CC1 (stereo not shown) [Example 151, N-[1-[3-amino-6-(2-hydroxyphenyl)pyridazin-4-yl]-4-phenyl-4-piperidyl]-4-[4-[4-[(2,6-dioxo-3-piperidyl)oxy]phenyl]-1-piperidyl]butanamide]
11	27	Nc1nnc(-c2ccccc2O)cc1N1CCC(C(=O)N2CC3(CN(CC4CCN(c5ccc6c(c5)C(=O)N(C5CCC(=O)NC5=O)C6=O)CC4)C3)C2)(c2ccccc2)CC1 (stereo not shown) [Example 159, 5-(4-((6-(1-(3-amino-6-(2-hydroxyphenyl)pyridazin-4-yl)-4-phenylpiperidine-4-carbonyl)-2,6-diazaspiro[3.3]heptan-2-yl)methyl)piperidin-1-yl)-2-(2,6-dioxopiperidin-3-yl)isoindoline-1,3-dione]
299	57	Nc1nnc(-c2ccccc2O)cc1N1CCC(C(=O)N2CC3(CCN(C(=O)COc4ccc5c(c4)C(=O)N(C4CCC(=O)NC4=O)C5=O)CC3)C2)(c2ccccc2)CC1 (stereo not shown) [Example 162, 5-(2-(2-(1-(3-amino-6-(2-hydroxyphenyl)pyridazin-4-yl)-4-phenylpiperidine-4-carbonyl)-2,7-diazaspiro[3.5]nonan-7-yl)-2-oxoethoxy)-2-(2,6-dioxopiperidin-3-yl)isoindoline-1,3-dione]
22	33	Nc1nnc(-c2ccccc2O)cc1N1CCC(C(=O)N2CC3(CCN(C(=O)C4CCN(c5ccc6c(c5)C(=O)N(C5CCC(=O)NC5=O)C6=O)CC4)CC3)C2)(c2ccccc2)CC1 (stereo not shown) [Example 163, 5-(4-(2-(1-(3-amino-6-(2-hydroxyphenyl)pyridazin-4-yl)-4-phenylpiperidine-4-carbonyl)-2,7-diazaspiro[3.5]nonane-7-carbonyl)piperidin-1-yl)-2-(2,6-dioxopiperidin-3-yl)isoindoline-1,3-dione]
42	50	Nc1nnc(-c2ccccc2O)cc1N1CCC(C(=O)N2CC3(CCN(C(=O)CC4CCN(c5ccc6c(c5)C(=O)N(C5CCC(=O)NC5=O)C6=O)CC4)CC3)C2)(c2ccccc2)CC1 (stereo not shown) [Example 164, 5-(4-(2-(2-(1-(3-amino-6-(2-hydroxyphenyl)pyridazin-4-yl)-4-phenylpiperidine-4-carbonyl)-2,7-diazaspiro[3.5]nonan-7-yl)-2-oxoethyl)piperidin-1-yl)-2-(2,6-dioxopiperidin-3-yl)isoindoline-1,3-dione]
28	38	Nc1nnc(-c2ccccc2O)cc1N1CCC(C(=O)N2CC3(CCN(C(=O)CN4CCC(c5ccc(NC6CCC(=O)NC6=O)cc5)CC4)CC3)C2)(c2ccccc2)CC1 (stereo not shown) [Example 165, 3-((4-(1-(2-(2-(1-(3-amino-6-(2-hydroxyphenyl)pyridazin-4-yl)-4-phenylpiperidine-4-carbonyl)-2,7-diazaspiro[3.5]nonan-7-yl)-2-oxoethyl)piperidin-4-yl)phenyl)amino)piperidine-2,6-dione]
607	53	Nc1nnc(-c2ccccc2O)cc1N1CCC(C(=O)N2CCC3(CC2)CN(C(=O)COc2ccc4c(c2)C(=O)N(C2CCC(=O)NC2=O)C4=O)CCO3)(c2ccccc2)CC1 (stereo not shown) [Example 166, 5-(2-(9-(1-(3-amino-6-(2-hydroxyphenyl)pyridazin-4-yl)-4-phenylpiperidine-4-carbonyl)-1-oxa-4,9-diazaspiro[5.5]undecan-4-yl)-2-oxoethoxy)-2-(2,6-dioxopiperidin-3-yl)isoindoline-1,3-dione]
54	43	Nc1nnc(-c2ccccc2O)cc1N1CCC(C(=O)N2CCC3(CC2)CN(C(=O)C2CCN(c4ccc5c(c4)C(=O)N(C4CCC(=O)NC4=O)C5=O)CC2)CCO3)(c2ccccc2)CC1 (stereo not shown) [Example 167, 5-(4-(9-(1-(3-amino-6-(2-hydroxyphenyl)pyridazin-4-yl)-4-phenylpiperidine-4-carbonyl)-1-oxa-4,9-diazaspiro[5.5]undecane-4-carbonyl)piperidin-1-yl)-2-(2,6-dioxopiperidin-3-yl)isoindoline-1,3-dione]

SMILES	DC50 [nM]	Emax [%]
Nc1ccccc1-c1cc(N2CC3CCC(C2)N3c2cccc(CN3CCN(C(=O)C4CCN(c5ccc6c(c5)C(=O)N(C5CCC(=O)NC5=O)C6=O)CC4)CC3)c2)c(N)nn1 (stereo not shown) [Example 147, 5-[4-[4-[[3-[3-[3-amino-6-(2-aminophenyl)pyridazin-4-yl]-3,8-diazabicyclo[3.2.1]octan-8-yl]phenyl]methyl]piperazine-1-carbonyl]-1-piperidyl]-2-(2,6-dioxo-3-piperidyl)isoindoline-1,3-dione]	236	69
Nc1nnc(-c2cc(F)ccc2O)cc1N1CC2CCC(C1)N2c1cccc(CN2CCN(C(=O)C3CCN(c4ccc5c(c4)C(=O)N(C4CCC(=O)NC4=O)C5=O)CC3)CC2)c1 (stereo not shown) [Example 158, 5-[4-[4-[[3-[3-[3-amino-6-(5-fluoro-2-hydroxy-phenyl)pyridazin-4-yl]-3,8-diazabicyclo[3.2.1]octan-8-yl]phenyl]methyl]piperazine-1-carbonyl]-1-piperidyl]-2-(2,6-dioxo-3-piperidyl)isoindoline-1,3-dione]	–	5
Nc1nnc(-c2cc(F)ccc2O)cc1N1C2CCC1CN(c1cccc(OCCN3CCN(C(=O)C4CCN(c5ccc6c(c5)C(=O)N(C5CCC(=O)NC5=O)C6=O)CC4)CC3)c1)C2 (stereo not shown) [Example 160, 5-[4-[4-[2-[3-[8-[3-amino-6-(5-fluoro-2-hydroxy-phenyl)pyridazin-4-yl]-3,8-diazabicyclo[3.2.1]octan-3-yl]phenoxy]ethyl]piperazine-1-carbonyl]-1-piperidyl]-2-(2,6-dioxo-3-piperidyl)isoindoline-1,3-dione]	144	74
